Earlier results as cited in article PMC10423561, “Effects of the CYP3A inhibitors, voriconazole, itraconazole, and fluconazole on the pharmacokinetics of osimertinib in rats” (PeerJ, 2023).
Like-named read-outs stand apart in the source and are kept apart here.

How the values were obtained:
[1] = parameters: method as in Fu et al., 2023; conditions: ref Fu et al., 2023, cited from earlier work
CYP3A = CYP3A probe substrate; inhibitor not stated; ref Uchida, Tanaka & Namiki, 2014; cited from earlier work

Compound	increase in systemic exposure of almonertinib ([1]; with FCZ) [fold]	increase in systemic exposure of almonertinib ([1]; with VCZ) [fold]	increase in AUC0–360 of midazolam (CYP3A) [%]
C=CC(=O)Nc1cc(Nc2nccc(-c3cn(C4CC4)c4ccccc34)n2)c(OC)cc1N(C)CCN(C)C [almonertinib]	3.4	2.7	
Cc1ncc2n1-c1ccc(Cl)cc1C(c1ccccc1F)=NC2 [midazolam]			133
